In patent US20090018134A1, “Compounds - 945” (AstraZeneca AB, priority 2007, published 2009):

Each compound was assayed against T1, mTOR (Homo sapiens, UniProt P42345) (assay: In Vitro mTOR Kinase Assay (Echo), Test (a)(ii)). Details: read-out: mTOR Kinase Assay (Echo).
T1 construct: FLAG; made in house
Assay type: biochemical
Outline: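 Inhibition of truncated mTOR (1362-2549, FLAG-tagged, purified from stably transfected HEK293 cells) is measured as reduced AlphaScreen signal from a phospho-T389-recognising antibody bound to the biotinylated peptide product. Kinase incubation lasts 2 hours at room temperature. Potency is given as IC50.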

T1 sequence (P42345 1362-2549): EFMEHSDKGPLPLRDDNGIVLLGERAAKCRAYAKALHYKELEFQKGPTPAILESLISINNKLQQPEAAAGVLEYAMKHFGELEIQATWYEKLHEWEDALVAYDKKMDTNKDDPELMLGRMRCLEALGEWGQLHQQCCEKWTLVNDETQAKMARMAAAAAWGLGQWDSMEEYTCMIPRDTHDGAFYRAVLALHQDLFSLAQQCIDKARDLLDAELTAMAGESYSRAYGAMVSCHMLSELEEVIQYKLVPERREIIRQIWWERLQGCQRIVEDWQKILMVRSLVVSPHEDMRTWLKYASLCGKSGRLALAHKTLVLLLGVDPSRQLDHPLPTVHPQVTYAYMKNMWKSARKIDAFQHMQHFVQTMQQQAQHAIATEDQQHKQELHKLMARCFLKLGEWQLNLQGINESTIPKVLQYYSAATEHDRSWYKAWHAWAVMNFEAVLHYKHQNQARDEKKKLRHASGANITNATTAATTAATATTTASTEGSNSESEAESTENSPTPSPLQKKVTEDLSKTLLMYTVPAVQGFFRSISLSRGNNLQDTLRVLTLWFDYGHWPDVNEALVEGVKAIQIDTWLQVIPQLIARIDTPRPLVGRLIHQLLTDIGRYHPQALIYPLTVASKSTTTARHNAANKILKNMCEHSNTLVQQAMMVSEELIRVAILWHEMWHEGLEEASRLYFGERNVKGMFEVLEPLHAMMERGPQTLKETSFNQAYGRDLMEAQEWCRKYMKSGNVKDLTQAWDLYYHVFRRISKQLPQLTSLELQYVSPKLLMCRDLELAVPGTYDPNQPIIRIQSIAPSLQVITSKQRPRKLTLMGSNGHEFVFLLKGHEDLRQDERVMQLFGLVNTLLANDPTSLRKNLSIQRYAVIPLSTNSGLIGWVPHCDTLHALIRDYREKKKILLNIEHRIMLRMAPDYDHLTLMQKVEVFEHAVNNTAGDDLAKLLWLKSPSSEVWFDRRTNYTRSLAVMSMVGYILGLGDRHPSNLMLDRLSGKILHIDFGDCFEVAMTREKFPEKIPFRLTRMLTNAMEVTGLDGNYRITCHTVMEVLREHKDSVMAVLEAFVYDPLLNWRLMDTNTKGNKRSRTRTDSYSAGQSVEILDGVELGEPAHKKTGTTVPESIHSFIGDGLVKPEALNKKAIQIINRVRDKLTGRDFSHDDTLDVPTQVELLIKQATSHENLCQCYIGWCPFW

Compound | IC50 [nM]
C[C@H]1COCCN1c1cc(C2(S(C)(=O)=O)CC2)nc(-c2ccc(NC(=O)NCc3ncc[nH]3)cc2)n1 [Example 2d, 3-(1H-imidazol-2-ylmethyl)-1-[4-[4-[(3S)-3-methylmorpholin-4-yl]-6-(1-methylsulfonylcyclopropyl)pyrimidin-2-yl]phenyl]urea] | 23.9
CC(C)NC(=O)Nc1ccc(-c2nc(N3CCOC[C@@H]3C)cc(C3(S(=O)(=O)c4ccccc4C(F)(F)F)CC3)n2)cc1 [Example 10d, 1-[4-[4-[(3S)-3-methylmorpholin-4-yl]-6-[1-[2-(trifluoromethyl)phenyl]sulfonylcyclopropyl]pyrimidin-2-yl]phenyl]-3-propan-2-yl-urea] | 43.2
C[C@H]1COCCN1c1cc(C2(S(C)(=O)=O)CC2)nc(-c2ccc(NC(=O)Nc3ncns3)cc2)n1 [Example 2ae, 1-[4-[4-[(3S)-3-methylmorpholin-4-yl]-6-(1-methylsulfonylcyclopropyl)pyrimidin-2-yl]phenyl]-3-(1,2,4-thiadiazol-5-yl)urea] | 0.72
CCCNC(=O)Nc1ccc(-c2nc(N3CCOC[C@@H]3C)cc(C3(S(=O)(=O)c4ccncc4)CC3)n2)cc1 [Example 6g, 1-[4-[4-[(3S)-3-methylmorpholin-4-yl]-6-(1-pyridin-4-ylsulfonylcyclopropyl)pyrimidin-2-yl]phenyl]-3-propyl-urea] | 2.25

The remaining lines, values ahead:

IC50 [nM] | Compound
313 | CCS(=O)(=O)C1(c2cc(N3CCOC[C@@H]3C)nc(-c3ccc(NC(=O)NCCN(C)C)cc3)n2)CC1 [Example 11g, 3-(2-dimethylaminomethyl)-1-[4-[4-(1-ethylsulfonylcyclopropyl)-6-[(3S)-3-methylmorpholin-4-yl]pyrimidin-2-yl]phenyl]urea]
1.66 | CCNC(=O)Nc1ccc(-c2nc(N3CCOC[C@@H]3C)cc(C3(S(=O)(=O)C4CC4)CC3)n2)cc1 [Example 3e, 3-[4-[4-(1-cyclopropylsulfonylcyclopropyl)-6-[(3S)-3-methylmorpholin-4-yl]pyrimidin-2-yl]phenyl]-1-ethyl-urea]
4.21 | CS(=O)(=O)C1(c2cc(N3CCOCC3)nc(-c3ccc(NC(=O)NC4CC4)cc3)n2)CC1 [Example 12, 3-Cyclopropyl-1-[4-[4-(1-methylsulfonylcyclopropyl)-6-morpholin-4-ylpyrimidin-2-yl]phenyl]urea]

Same assay, conditions: table of enzyme assay Test (a)(ii); read-out: Test (a)(ii) IC50

Compound | IC50 [nM]
CC(C)NC(=O)Nc1ccc(-c2nc(N3CCOC[C@@H]3C)cc(C3(S(=O)(=O)c4ccccn4)CC3)n2)cc1 [Example 28d, 1-[4-[4-[(3S)-3-methylmorpholin-4-yl]-6-(1-pyridin-2-ylsulfonylcyclopropyl)pyrimidin-2-yl]phenyl]-3-propan-2-ylurea] | 2.37
Cc1noc(C)c1S(=O)(=O)C1(c2cc(N3CCOC[C@@H]3C)nc(-c3ccc(NC(=O)NCCF)cc3)n2)CC1 [Example 59c, 1-[4-[4-[1-[(3,5-dimethyl-1,2-oxazol-4-yl)sulfonyl]cyclopropyl]-6-[(3S)-3-methylmorpholin-4-yl]pyrimidin-2-yl]phenyl]-3-(2-fluoroethyl)urea] | 22.6
C[C@H]1COCCN1c1cc(C2(S(=O)(=O)c3ccccc3)CC2)nc(-c2ccc(NC(=S)Nc3cnn(C)c3)cc2)n1 [Example 37w, 1-[4-[4-[1-(benzenesulfonyl)cyclopropyl]-6-[(3S)-3-methylmorpholin-4-yl]pyrimidin-2-yl]phenyl]-3-(1-methylpyrazol-4-yl)thiourea] | 1.37
C[C@H]1COCCN1c1cc(C2(S(=O)(=O)CCCO)CC2)nc(-c2ccc(NC(=O)NCC(=O)N(C)C)cc2)n1 [Example 36cs, 2-[[4-[4-[1-(3-hydroxypropylsulfonyl)cyclopropyl]-6-[(3S)-3-methylmorpholin-4-yl]pyrimidin-2-yl]phenyl]carbamoylamino]-N,N-dimethylactamide] | 1170
C[C@H]1COCCN1c1cc(C2(S(=O)(=O)c3ccccc3)CCC2)nc(-c2ccc(NC(=O)NCc3ncc[nH]3)cc2)n1 [Example 36du, 1-[4-[4-[1-(benzenesulfonyl)cyclobutyl]-6-[(3S)-3-methylmorpholin-4-yl]pyrimidin-2-yl]phenyl]-3-(1H-imidazol-2-ylmethyl)urea] | 15.2
C[C@H]1COCCN1c1cc(C2(S(=O)(=O)c3nccs3)CC2)nc(-c2ccc(NC(=O)NCc3ncc[nH]3)cc2)n1 [Example 66b, 3-(1H-imidazol-2-ylmethyl)-1-[4-[4-[(3S)-3-methylmorpholin-4-yl]-6-[1-(1,3-thiazol-2-ylsulfonyl)cyclopropyl]pyrimidin-2-yl]phenyl]urea] | 24.6
CNC(=S)Nc1ccc(-c2nc(N3CCOC[C@@H]3C)cc(C3(S(=O)(=O)c4nc(C)cs4)CC3)n2)cc1 [Example 37p, 3-methyl-1-[4-[4-[(3S)-3-methylmorpholin-4-yl]-6-[1-[(4-methyl-1,3-thiazol-2-yl)sulfonyl]cyclopropyl]pyri-midin-2-yl]phenyl]thiourea] | 5.34
C[C@H]1COCCN1c1cc(C2(S(=O)(=O)c3ccc(F)cc3)CC2)nc(-c2ccc(NC(=O)Nc3cnn(C)c3)nc2)n1 [Example 14m, 1-[5-[4-[1-(4-fluorophenyl)sulfonylcyclopro-pyl]-6-[(3S)-3-methylmorpholin-4-yl]pyrimidin-2-yl]pyridin-2-yl]-3-(1-methylpyrazol-4-yl)urea] | 14.3
C[C@H]1COCCN1c1cc(C2(S(=O)(=O)c3ccccn3)CC2)nc(-c2ccc(NC(=O)NCCCO)cc2)n1 [Example 28k, 3-(3-hydroxypropyl)-1-[4-[4-[(3S)-3-methymorpholin-4-yl]-6-(1-pyridin-2-ylsulfonylcyclopropyl)pyrimidin-2-yl]phenyl]urea] | 0.954
C[C@H]1COCCN1c1cc(C2(S(=O)(=O)c3cccnc3C(=O)N(C)C)CC2)nc(-c2ccc(NC(=O)NC3CC3)cc2)n1 [Example 50a] | 7.94
Cc1nc(C)c(S(=O)(=O)C2(c3cc(N4CCOC[C@@H]4C)nc(-c4ccc(NC(=O)NC5CC5)cc4)n3)CC2)s1 [Example 78, 3-Cyclopropyl-1-[4-[4-[1-[(2,4-dimethyl-1,3-thiazol-5-yl)sulfonyl]cyclopropyl]-6-[(3S)-3-methylmorpholin-4-yl]pyrimidin-2-yl]phenyl]urea] | 41.8
1-[4-[4-[1-(2,4-difluorophenyl)sulfonylcyclopro-pyl]-6-[(3S)-3-methylmorpholin-4-yl]pyrimidin-2-yl]phenyl]-3-(2-hydroxyethyl)urea [Example 57b] | 4.57
CNC(=O)Nc1ccc(-c2nc(N3CCOC[C@@H]3C)cc(C3(S(=O)(=O)c4ccc(NC)c(Cl)c4)CC3)n2)cc1 [Example 95h, 1-[4-[4-[1-(3-chloro-4-methylamino-phenyl)sulfonylcyclo-propyl]-6-[(3S)-3-methylmorpho-lin-4-yl]pyrimidin-2-yl]phenyl]-3-methylurea] | 13
CCCNC(=O)Nc1ccc(-c2nc(N3CCOC[C@@H]3C)cc(C3(S(=O)(=O)C(C)(C)C)CC3)n2)cc1 [Example 18h, 1-[4-[4-(1-tert-butylsulfonylcyclopropyl)-6-[(3S)-3-methylmorpholin-4-yl]pyrimidin-2-yl]phenyl]-3-propylurea] | 6.64
CC(C)NC(=O)Nc1ccc(-c2nc(N3CCOC[C@@H]3C)cc(C3(S(=O)(=O)c4ccccc4)CC3)n2)cc1 [Example 36bf, 1-[4-[4-[1-(benzenesulfonyl)cyclopropyl]-6-[(3S)-3-methylmorpholin-4-yl]pyrimidin-2-yl]phenyl]-3-propan-2-ylurea] | 4.57
C[C@H](CO)NC(=O)Nc1ccc(-c2nc(N3CCOC[C@@H]3C)cc(C3(S(=O)(=O)c4nccs4)CCC3)n2)cc1 [Example 98l, 3-[(2R)-1-hydroxypropan-2-yl]-1-[4-[4-[(3S)-3-methylmorpholin-4-yl]-6-[1-(1,3-thiazol-2-ylsulfonyl)cyclobutyl]pyrimidin-2-yl]phenyl]urea] | 7.89

The remaining lines, values ahead:

IC50 [nM] | Compound
133 | CN1CCN(C(=O)C2(c3cc(N4CCOCC4)nc(-c4ccc(NC(=O)NC5CC5)cc4)n3)CC2)CC1 [Example 33d, 3-cyclopropyl-1-[4-[4-[1-(4-methylpiperazine-1-carbonyl)cyclopropyl]-6-morpholin-4-ylpyrimidin-2-yl]phenyl]urea]
3.23 | C[C@H]1COCCN1c1cc(C2(S(=O)(=O)c3ccc(C(N)=O)cc3Cl)CC2)nc(-c2ccc(NC(=O)NCCO)cc2)n1 [Example 85d, 3-chloro-4-[1-[2-[4-(2-hydroxyethylcarbamoylamino)phenyl]-6-[(3S)-3-methylmorpholin-4-yl]pyrimidin-4-yl]cyclopropyl]sulfonylbenzamide]
8.46 | CC(C)(CO)NC(=O)Nc1ccc(-c2nc(N3CCOCC3)cc(C3(S(=O)(=O)C4CC4)CCC3)n2)cc1 [Example 13s, 1-[4-[4-(1-cyclopropylsulfonylcyclobutyl)-6-morpholin-4-ylpyrimidin-2-yl]phenyl]-3-(1-hydroxy-2-methylpropan-2-yl)urea]
2.75 | Cn1cc(NC(=O)Nc2ccc(-c3nc(N4CCOCC4)cc(C4(S(=O)(=O)C5CC5)CC4)n3)cc2)cn1 [Example 13i, 1-[4-[4-(1-cyclopropylsulfonylcyclopropyl)-6-morpholin-4-ylpyrimidin-2-yl]phenyl]-3-(1-methylpyrazol-4-yl)urea]
8.62 | C[C@H]1COCCN1c1cc(C2(S(=O)(=O)c3cc(F)ccc3F)CC2)nc(-c2ccc(NC(=O)NCCO)cc2)n1 [Example 60b, 1-[4-[4-[1-(2,5-difluorophenyl)sulfonylcyclopropyl]-6-[(3S)-3-methylmorpholin-4-yl]pyrimidin-2-yl]phenyl]-3-(2-hydroxyethyl)urea]
286 | CCCNC(=O)Nc1ccc(-c2nc(N3CCOC[C@@H]3C)cc(C3(S(=O)(=O)CCCO)CCOCC3)n2)cc1 [Example 36cf, 3-[4-[4-[4-(3-hydroxypropylsulfonyl)oxan-4-yl]-6-[(3S)-3-methylmorpholin-4-yl]pyrimidin-2-yl]phenyl]-1-propylurea]
86.3 | CN1CCN(C(=O)C2(c3cc(N4CCOCC4)nc(-c4ccc(NC(=O)NCCO)cc4)n3)CC2)CC1 [Example 34d, 3-(2-hydroxyethyl)-1-[4-[4-[1-(4-methylpiperazine-1-carbonyl)cyclopropyl]-6-morpholin-4-ylpyrimidin-2-yl]phenyl]urea]
